Measurements from patent publication US9717248B2, “Antibacterial micro- and nanoparticles comprising a chlorhexidine salt, method of production and uses thereof” (The University of Bristol, priority 2013, dated 2017).
Like-named read-outs stand apart in the source and are kept apart here.

Tests used:
E. coli = assay: Growth of microorganisms on polyurethane specimens; type: cell-based, Escherichia coli; parameters: key: −: complete inhibition; +: slight growth (growth observed at dilutions between 10^−1-10^−3); ++: moderate growth (growth observed at dilutions between 10^−4-10^−6); +++: high growth (growth at dilutions between 10^−7-10^−12); conditions: 24 h incubation
Source text: (§1) Extensive microbiology work has also been completed. […] Key: −complete inhibition; +slight growth (growth observed at dilutions between 10^−1-10^−3); ++ moderate growth (growth observed at dilutions between 10^−4-10^−6); +++ high growth (growth at dilutions between 10^−7-10^−12).

K. pneumoniae = assay: Growth of microorganisms on polyurethane specimens; type: cell-based, Klebsiella pneumoniae; parameters: key: −: complete inhibition; +: slight growth (growth observed at dilutions between 10^−1-10^−3); ++: moderate growth (growth observed at dilutions between 10^−4-10^−6); +++: high growth (growth at dilutions between 10^−7-10^−12); conditions: 24 h incubation
Source text: as §1

MRSA = assay: Growth of microorganisms on polyurethane specimens; type: cell-based, Staphylococcus aureus; parameters: key: −: complete inhibition; +: slight growth (growth observed at dilutions between 10^−1-10^−3); ++: moderate growth (growth observed at dilutions between 10^−4-10^−6); +++: high growth (growth at dilutions between 10^−7-10^−12); conditions: 24 h incubation in bacteria growth medium
Source text: as §1

P aeruginosa = assay: Growth of microorganisms on polyurethane specimens; type: cell-based, Pseudomonas aeruginosa; parameters: key: −: complete inhibition; +: slight growth (growth observed at dilutions between 10^−1-10^−3); ++: moderate growth (growth observed at dilutions between 10^−4-10^−6); +++: high growth (growth at dilutions between 10^−7-10^−12); conditions: 24 h incubation
Source text: as §1

[1] = composite resins supplemented with pulverised CHX diacetate; cited from earlier work
S. mutans [2] = assay: Reported MIC for S. mutans; type: cell-based; conditions: Streptococcus mutans, conversion of the reported 0.125%
S. mutans [3] = conditions: reported; cited from earlier work
[4] = Elution of CHX from CHX-HMP functionalised materials (UV spectrophotometry); type: physicochemical
Procedure: 200 mL of the colloidal suspension was prepared using freshly-prepared reagents (to prevent hydrolysis of the HMP). The specimen was immersed in the rapidly stirred colloid for 30 s, then removed and immersed in deionised water for 10 s to rinse, and then blotted to remove excess liquid and allowed to dry in air.
8 specimens of each material coated with CHX-HMP-5 and CHX-HMP-0.5 nanoparticles were placed in individually labelled cuvettes suitable for ultraviolet spectrophotometry. Deionised water was added to the cuvettes and they were sealed tightly using cuvette lids. These were agitated on an orbital shaker rotating at 150 rpm. The cuvettes were kept sealed and were sampled for chlorhexidine concentration at intervals over a 60-90 day period. Control sets were prepared where the specimens were immersed in deionised water and where they were immersed in a 25 μM CHX solution, which is the concentration of aqueous CHX residual in the CHX-HMP-5 colloidal suspension.

[5] = Elution of CHX from functionalised borosilicate glass surfaces (UV spectrophotometry); type: physicochemical; conditions: coated glass coverslips in deionised water, 14-day period
Procedure: Chlorhexidine based salts were prepared by combining, at room temperature and under rapid stirring, 100 mL chlorhexidine (as the digluconate salt in aqueous solution at a concentration of 10 mM) and 100 mL of one of a range of anions in aqueous solution, also at an initial concentration of 10 mM, to effect final total concentrations of 5 mM of each. The precipitate was then allowed to adhere on borosilicate glass coverslips. Coverslips (Agar Scientific, Stansted, UK) were cleaned by 10 minutes ultrasonication in acetone followed by 10 minutes ultrasonication in industrial methylated spirits and allowed to air dry. They were immersed in the 200 mL suspension described above while it was rapidly stirred using a magnetic stirring plate. Coverslips were immersed for 30 seconds, removed, immersed in deionised water for 10 seconds to rinse, blotted to remove excess liquid and allowed to dry in air. The elution of soluble CHX from the functionalised glass surfaces was examined using ultraviolet spectrophotometry. 8 specimens of each type were placed in individually labelled cuvettes suitable for ultraviolet spectrophotometry. 2.5 mL deionised water was added to the cuvettes and they were sealed tightly using cuvette lids. These were agitated on an orbital shaker rotating at 150 rpm. […]

MRSA biofilm = assay: Static biofilm model (crystal violet); type: cell-based, Staphylococcus aureus; conditions: MRSA 48 h static biofilm, 2 h treatment; word qualifies 'disruption'
Procedure: (§2) Bacterial strains were initially grown for 16 h and these stationary phase cultures were harvested by centrifugation, and adjusted to OD650=0.1. Biofilms were grown in 50 μL appropriate media at 37° C. for 48 h, aerobically then the media was removed and discarded. Loosely adherent bacteria were removed by washing the biofilms twice with 100 μl PBS. Chlorhexidine or chlorhexidine nanoparticles diluted in PBS were added to the biofilms using a doubling dilution as described above (0-25 μM). The plates were incubated for 2 h at 37° C.; to estimate biomass, unattached cells were gently aspirated and discarded, and adherent cells were washed twice with PBS and stained with crystal violet (0.25% w/v) for 10 min; following a further two washes with PBS, cell-bound crystal violet was re-solubilized with 7% acetic acid, and absorbance measured at 595 nm (A595).

[6] = test system: Pseudomonas aeruginosa NCIMB 8626 (ATCC 9027); assay: Minimum inhibitory concentration, planktonic bacteria; type: cell-based; conditions: P. aeruginosa, 16 h; value for CHX-HMP-5 is minimum tested
Procedure: (§3) Methicillin-resistant Staphylococcus aureus (MRSA; NCTC13142) was cultured in Mueller-Hinton media. Pseudomonas aeruginosa NCIMB 8626 (ATCC 9027) was cultured in nutrient broth (NB) or nutrient agar (NA). All cultures were incubated at 37° C. aerobically throughout the study.
(§4) Cultures were incubated for 16 h at 37° C. in aerobic conditions, optical density (CD) readings were measured at 620 nm (A620) using a standard microtitre plate reader (SpectroStar Nano; BMG Labtech).

[7] = test system: Methicillin-resistant Staphylococcus aureus (MRSA; NCTC13142); assay: as above; type: cell-based; conditions: 16 h, 37° C., OD 620 nm, listed as 25 μM chlorhexidine
Procedure: as §3, §4

MRSA bacteria = assay: Microbiology on EVA samples functionalised with CHX nanoparticles; type: cell-based, Staphylococcus aureus; conditions: EVA specimens, 18 h incubation in 1 mL growth medium
Procedure: EVA specimens were functionalised by 30 s immersion in a colloidal suspension of CHX-HMP-5 in water followed by 10 s immersion in deionised water (“low concentration”) or without subsequent immersion in deionised water (“high concentration”). These samples were then exposed to cultures of MRSA bacteria. They were then immersed in 1 mL, growth medium and incubated for 18 h. According to the release experiments in this time the EVA specimen should release around 6 μM per m^2 material. Surface area of the specimen was 0.000182 m^2 so the expected total release should be […] CHX into 1 mL giving a resultant concentration of 1.1 μM CHX.

P. aeruginosa biofilm = assay: Static biofilm model (crystal violet); type: cell-based, Pseudomonas aeruginosa; conditions: P. aeruginosa 48 h static biofilm, 2 h treatment; word qualifies 'disruption'
Procedure: as §2

[8] = result in words, 'Little or no' continues 'significant release'

For N=C(NCCCCCCNC(=N)NC(=N)Nc1ccc(Cl)cc1)NC(=N)Nc1ccc(Cl)cc1 [80 μM CHX, chlorhexidine], the “growth of microorganisms on polyurethane specimens” value (shortened to “growth of microorganisms”) (E. coli) was “++”, the “growth of microorganisms” value (K. pneumoniae) was “++” and the “growth of microorganisms” value (MRSA) was “++”. The “growth of microorganisms” value (P aeruginosa) was “++”.

For N=C(NCCCCCCNC(=N)NC(=N)Nc1ccc(Cl)cc1)NC(=N)Nc1ccc(Cl)cc1 [CHX diacetate], the “time to plateau of CHX release” value [1] is listed as “around 7 days”.

In the case of N=C(NCCCCCCNC(=N)NC(=N)Nc1ccc(Cl)cc1)NC(=N)Nc1ccc(Cl)cc1 [CHX digluconate], the MIC (S. mutans [2]) is given as ~1400 µM and the MIC (S. mutans [3]) is given as 0.125 % by mass.

In the case of N=C(NCCCCCCNC(=N)NC(=N)Nc1ccc(Cl)cc1)NC(=N)Nc1ccc(Cl)cc1 [Comparative Example 4, chlorhexidine], the “CHX Release Period” value [4, 8] is reported as “No release”.

For N=C(NCCCCCCNC(=N)NC(=N)Nc1ccc(Cl)cc1)NC(=N)Nc1ccc(Cl)cc1 [Comparative Example 5, chlorhexidine], the “CHX Release Period” value ([4]; functionalised material in deionised water, 60-90 day period) was >60 days.

In the case of N=C(NCCCCCCNC(=N)NC(=N)Nc1ccc(Cl)cc1)NC(=N)Nc1ccc(Cl)cc1 [Comparative Example 6, chlorhexidine], the “CHX Release Period” value [4, 8] is reported as “No release”.

In the case of N=C(NCCCCCCNC(=N)NC(=N)Nc1ccc(Cl)cc1)NC(=N)Nc1ccc(Cl)cc1 [Comparative Example 7, chlorhexidine], the “CHX Release Period” value [4, 8] is reported as “Little or no”.

With N=C(NCCCCCCNC(=N)NC(=N)Nc1ccc(Cl)cc1)NC(=N)Nc1ccc(Cl)cc1 [compound 2, chlorhexidine] the “CHX Release Period” value [5] was 48 to 72 h.

For N=C(NCCCCCCNC(=N)NC(=N)Nc1ccc(Cl)cc1)NC(=N)Nc1ccc(Cl)cc1 [compound 8, chlorhexidine], the Effect on biofilm (MRSA biofilm) was “MRSA: slight”, the “MIC, soluble CHX conc” value [6] was “P.a.: (25 μM)” and the “MIC, soluble CHX conc” value [7] was “not efficacious”. For the same molecule, the “recovery of MRSA / efficacy against MRSA” value (MRSA bacteria) was “not efficacious” and the Effect on biofilm (P. aeruginosa biofilm) was “P.a.: slight”.
